From US12441743B2, “Spiro aromatic ring compound and use thereof” (Etern Biopharma (Shanghai) Co., Ltd., priority 2018, dated 2025)
Like-named read-outs stand apart in the source and are kept apart here.

Tests used:
SHP2 E76A protein = target: T1, SHP2 E76A protein (Homo sapiens, UniProt Q06124, E76A); assay: SHP2 enzyme activity inhibition test (DiFMUP substrate, fluorescence); format: biochemical; details: 50 ng SHP2 E76A, 20 min with compound, then 10 uM DiFMUP 20 min at room temperature
T1 sequence (Q06124 1-593 E76A): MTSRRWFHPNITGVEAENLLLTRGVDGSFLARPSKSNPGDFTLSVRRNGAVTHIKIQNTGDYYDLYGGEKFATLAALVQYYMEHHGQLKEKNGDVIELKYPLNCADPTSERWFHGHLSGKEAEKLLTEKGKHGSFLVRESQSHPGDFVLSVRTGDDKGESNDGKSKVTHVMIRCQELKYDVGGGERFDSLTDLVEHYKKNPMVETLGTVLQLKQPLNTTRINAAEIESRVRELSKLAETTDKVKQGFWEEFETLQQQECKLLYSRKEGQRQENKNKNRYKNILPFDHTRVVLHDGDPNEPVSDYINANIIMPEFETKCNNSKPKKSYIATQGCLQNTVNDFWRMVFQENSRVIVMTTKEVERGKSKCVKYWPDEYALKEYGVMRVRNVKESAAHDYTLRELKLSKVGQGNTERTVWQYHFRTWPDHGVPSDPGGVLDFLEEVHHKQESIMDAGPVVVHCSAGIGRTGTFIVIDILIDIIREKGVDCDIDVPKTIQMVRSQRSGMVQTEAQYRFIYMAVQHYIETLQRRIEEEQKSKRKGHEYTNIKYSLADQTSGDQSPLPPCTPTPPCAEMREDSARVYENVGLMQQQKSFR

MV4-11 cells = assay: MV4-11 cell proliferation inhibition experiment (CellTiter-Glo); format: cell-based; details: Homo sapiens, read-out: Cell proliferation inhibition activity
Experimental: The number of living cells in the culture was determined by quantitative determination of intracellular ATP using CellTiter-Glo® Luminescent Cell Viability Assay kit.
In the first step, MV4-11 cells were inoculated into 96-well plates with a density of 2500 cells per well and a volume of 100 μL per well. The plates were placed in 37° C., 5% carbon dioxide incubator overnight.
In the second step, cells were treated with compounds. The compounds to be tested were diluted 3 times, and 8 concentration gradients were set up. Each well was added with a certain volume of DMSO or the compound to be tested, and each concentration was tested in 2 replicates, and the final concentration of DMSO was 0.5%. The plates were placed in 37° C., 5% carbon dioxide incubator for 72 h.
In the third step, cell viability of the control groups and the treatment groups was determined using CellTiter-Glo® Luminescent Cell Viability Assay kit (Promega, G7570). Each well was added with 50 uL CellTiter-Glo. The culture was mixed well, and incubated at room temperature for 10 min. Signals were read using EnSpire (Perkin Elmer). Inhibition percentages (%) were calculated by the following formula:
Inhibition percentage (%)=(1−signal value of compound treatment group/signal value of DMSO treatment group)*100.

[1] = Pharmacokinetics experiment, intragastric single dose; format: in vivo; details: mouse, plasma, male mice, oral administration dosage 5 mg/Kg; for half-life: read-out: Half-life T1/2 (converted); for Cmax: read-out: Maximum plasma concentration Cmax; for AUC: read-out: Plasma exposure AUC
Experimental: Pharmacokinetics of the compound of the disclosure was determined. The following method was used to determine the pharmacokinetic parameters of the compound of the disclosure. Healthy male adult mice were used in the study. Each group was intragastrically administered with a single dose of 5-100 mg/kg. Fasting lasted from 10 hours before administration to 4 hours after administration. Blood samples were collected at different time points after administration and the compound content in plasma was determined by LC-MS/MS. The relationship between plasma concentration and time was analyzed by professional software (winnonlin), and the pharmacokinetic parameters of the compounds were calculated. According to Table 3, the compounds of the disclosure have excellent pharmacokinetic properties.

[2] = MV4-11 cells, 72 h, CellTiter-Glo

| SMILES | IC50 (SHP2 E76A protein) | IC50 (MV4-11 cells; [2]) | other results |
| --- | --- | --- | --- |
| Nc1nccc(Sc2cnc(N3CCC4(CC3)Cc3cccnc3[C@H]4N)n3ccnc23)c1Cl [Compound 10, (S)-1′-(8-((2-amino-3-chloropyridin-4-yl)thio)imidazo[1,2-c]pyrimidin-5-yl)-5,7-dihydrospiro[cyclopenta[b]pyridine-6,4′-piperidine]-7-amine] | 3 nM | 7 nM | bioavailability [1]: 51%; half-life [1]: 3.8 h; Cmax [1]: 5 µM; AUC [1]: 48 µM·h |
| CNc1nccc(Sc2cnc(N3CCC4(CC3)Cc3ncccc3[C@H]4N)n3ccnc23)c1Cl [Compound 5, (S)-1′-(8-((3-chloro-2-(methylamino)pyridin-4-yl)thio)imidazo[1,2-c]pyrimidin-5-yl)-5,7-dihydrospiro[cyclopenta[b]pyridine-6,4′-piperidine]-5-amine] | 5 nM | – | IC50 (MV4-11 cells; MV4-11, 72 h): 6 nM |
| Nc1nccc(Sc2cnc(N3CCC4(CC3)Cc3cccnc3[C@H]4N)n3cnnc23)c1Cl [Compound 11, (S)-1′-(8-((2-amino-3-chloropyridin-4-yl)thio)-[1,2,4]triazolo[4,3-c]pyrimidin-5-yl)-5,7-dihydrospiro[cyclopenta[b]pyridine-6,4′-piperidine]-7-amine] | 1 nM | 30 nM | – |
| COc1cccc2c1CC1(CCN(c3ncc(Sc4ccnc(N)c4Cl)c4nncn34)CC1)[C@@H]2N [Compound 19, (S)-1′-(8-((2-amino-3-chloropyridin-4-yl)thio)-[1,2,4]triazolo[4,3-c]pyrimidin-5-yl)-4-methoxy-1,3-dihydrospiro[indene-2,4′-piperidine]-1-amine] | 7 nM | 1 nM | – |
| Nc1nccc(Sc2cnc(N3CCC4(CC3)Cc3ncccc3[C@H]4N)n3cnnc23)c1Cl [Compound 3, (S)-1′-(8-((2-amino-3-chloropyridin-4-yl)thio)-[1,2,4]triazolo[4,3-c]pyrimidin-5-yl)-5,7-dihydrospiro[cyclopenta[b]pyridine-6,4′-piperidine]-5-amine] | 11 nM | 99 nM | – |
| Nc1nccc(Sc2cnc(N3CCC4(CC3)Cc3nccnc3[C@H]4N)n3ccnc23)c1Cl [Compound 18, (S)-1′-(8-((2-amino-3-chloropyridin-4-yl)thio)imidazo[1,2-c]pyrimidin-5-yl)-5,7-dihydrospiro[cyclopenta[b]pyrazine-6,4′-piperidine]-5-amine] | 7 nM | 42 nM | bioavailability [1]: 72%; half-life [1]: 3.5 h; Cmax [1]: 6.5 µM; AUC [1]: 40 µM·h |
| Nc1nccc(Sc2cnc(N3CCC4(CC3)Cc3ccccc3[C@H]4N)n3cnnc23)c1Cl [Compound 2] | 4 nM | 11 nM | – |
| Nc1nccc(Sc2cnc(N3CCC4(CC3)Cc3ccncc3[C@H]4N)n3ccnc23)c1Cl [Compound 8, (S)-1′-(8-((2-amino-3-chloropyridin-4-yl)thio)imidazo[1,2-c]pyrimidin-5-yl)-5,7-dihydrospiro[cyclopenta[c]pyridine-6,4′-piperidine]-7-amine] | 10 nM | 33 nM | – |
| N[C@@H]1c2ncccc2CC12CCN(c1ncc(Sc3ccnc(Cl)c3Cl)c3nncn13)CC2 [Compound 9, (S)-1′-(8-(2,3-dichloropyridin-4-yl)thio-[1,2,4]-triazolo[4,3-c]pyrimidin-5-yl)-5,7-dihydrospiro[cyclopenta[b]pyridine-6,4′-piperidine]-7-amine] | 7 nM | – | IC50 (MV4-11 cells; MV4-11, 72 h): 60 nM |
| N[C@@H]1c2cccnc2CC12CCN(c1ncc(Sc3ccnc4c3CCO4)c3nccn13)CC2 [Compound 1] | 11 nM | – | IC50 (MV4-11 cells; MV4-11, 72 h): 68 nM |
| Nc1nccc(Sc2cnc(N3CCC4(CC3)Cc3c(O)cccc3[C@H]4N)n3cnnc23)c1Cl [Compound 16, (S)-1-amino-1′-(8-((2-amino-3-chloropyridin-4-yl)thio)-[1,2,4]triazolo[4,3-c]pyrimidin-5-yl)-1,3-dihydrospiro[indene-2,4′-piperidin]-4-ol] | 2 nM | – | IC50 (MV4-11 cells; MV4-11, 72 h): 52 nM |
| N[C@@H]1c2cccnc2CC12CCN(c1ncc(Sc3ccnc4[nH]ncc34)c3nccn13)CC2 [Compound 23] | 9 nM | – | – |
| C[C@@H]1OCC2(CCN(c3ncc(Sc4ccnc(N)c4Cl)n4nccc34)CC2)[C@@H]1N [Positive control aa, reference compound] | 26 nM | 423 nM | – |

More lines, in order of falling IC50 (SHP2 E76A protein), values ahead:

| IC50 (SHP2 E76A protein) | IC50 (MV4-11 cells; [2]) | SMILES | other results |
| --- | --- | --- | --- |
| 11 nM | – | N[C@@H]1c2ncccc2CC12CCN(c1ncc(Sc3cccnc3C(F)(F)F)c3nncn13)CC2 [Compound 21, (S)-1′-(8-((2-(trifluoromethyl)pyridin-3-yl)thio)-[1,2,4]-triazolo[4,3-c]pyrimidin-5-yl)-5,7-dihydrospiro[cyclopenta[b]pyridine-6,4′-piperidine]-7-amine] | – |
| 10 nM | 35 nM | N#Cc1cccc2c1CC1(CCN(c3ncc(Sc4ccnc(N)c4Cl)c4nncn34)CC1)[C@@H]2N [Compound 17, (S)-1-amino-1′-(8-((2-amino-3-chloropyridin-4-yl)thio)-[1,2,4]triazolo[4,3-c]pyrimidin-5-yl)-1,3-dihydrospiro[indene-2,4′-piperidine]-4-nitrile] | – |
| 9 nM | – | Nc1nccc(Sc2cnc(N3CCC4(CC3)Cc3sc(Cl)nc3[C@H]4N)n3ccnc23)c1Cl [Compound 22] | – |
| 8 nM | 36 nM | Nc1nccc(Sc2cnc(N3CCC4(CC3)Cc3cnccc3[C@H]4N)n3ccnc23)c1Cl [Compound 14, (S)-1′-(8-((2-amino-3-chloropyridin-4-yl)thio)imidazo[1,2-c]pyrimidin-5-yl)-5,7-dihydrospiro[cyclopenta[c]pyridine-6,4′-piperidine]-5-amine] | – |
| 6 nM | 4 nM | Nc1nccc(Sc2cnc(N3CCC4(CC3)Cc3ncccc3[C@H]4N)n3ccnc23)c1Cl [Compound 6, (S)-1′-(8-((2-amino-3-chloropyridin-4-yl)thio)imidazo[1,2-c]pyrimidin-5-yl)-5,7-dihydrospiro[cyclopenta[b]pyridine-6,4′-piperidine]-5-amine] | bioavailability [1]: 37%; half-life [1]: 3.1 h; Cmax [1]: 6 µM; AUC [1]: 35 µM·h |
| 6 nM | – | Nc1nccc(Sc2cnc(N3CCC4(CC3)Cc3nccnc3[C@H]4N)n3cnnc23)c1Cl [Compound 20, (S)-1′-(8-((2-amino-3-chloropyridin-4-yl)thio)-[1,2,4]triazolo[4,3-c]pyrimidin-5-yl)-5,7-dihydrospiro[cyclopenta[b]pyrazine-6,4′-piperidine]-5-amine] | – |
| 3 nM | 94 nM | Nc1nccc(Sc2cnc(N3CCC4(CC3)Cc3cnccc3[C@H]4N)n3cnnc23)c1Cl [Compound 15, (S)-1′-(8-((2-amino-3-chloropyridin-4-yl)thio)-[1,2,4]triazolo[4,3-c]pyrimidin-5-yl)-5,7-dihydrospiro[cyclopenta[c]pyridine-6,4′-piperidine]-5-amine] | – |
| 2 nM | 30 nM | Nc1nccc(Sc2cnc(N3CCC4(CC3)Cc3ccc(F)cc3[C@H]4N)n3cnnc23)c1Cl [Compound 12, (S)-1′-(8-((2-amino-3-chloropyridin-4-yl)thio)-[1,2,4]triazolo[4,3-c]pyrimidin-5-yl)-6-fluoro-1,3-dihydrospiro[indene-2,4′-piperidine]-1-amine] | – |
| 1 nM | 1 nM | Nc1nccc(Sc2cnc(N3CCC4(CC3)Cc3ccc(F)cc3[C@H]4N)n3ccnc23)c1Cl [Compound 13, (S)-1′-(8-((2-amino-3-chloropyridin-4-yl)thio)imidazo[1,2-c]pyrimidin-5-yl)-6-fluoro-1,3-dihydrospirolindene-2,4′-piperidinel-1-amine] | – |
